In test [1] the target is vasopressin V1 receptor (rat liver plasma membranes) (Rattus norvegicus, UniProt P30560). Nature of the test: Binding Assay to Rat Hepatic V1 Receptors. The settings on record: for inhibition at 10 µM: 2 h, rat hepatic, read-out: V1, % at concentration in brackets; for IC50: rat hepatic V1.
The target of test [2] is T1, rat kidney medullary V2 receptors (Rattus norvegicus, UniProt Q00788).
T1 construct: Medullary tissues from rat kidneys are dissected out; from tissue; host or cells: rat kidney medulla membranes
T1 sequence (Q00788 whole entry): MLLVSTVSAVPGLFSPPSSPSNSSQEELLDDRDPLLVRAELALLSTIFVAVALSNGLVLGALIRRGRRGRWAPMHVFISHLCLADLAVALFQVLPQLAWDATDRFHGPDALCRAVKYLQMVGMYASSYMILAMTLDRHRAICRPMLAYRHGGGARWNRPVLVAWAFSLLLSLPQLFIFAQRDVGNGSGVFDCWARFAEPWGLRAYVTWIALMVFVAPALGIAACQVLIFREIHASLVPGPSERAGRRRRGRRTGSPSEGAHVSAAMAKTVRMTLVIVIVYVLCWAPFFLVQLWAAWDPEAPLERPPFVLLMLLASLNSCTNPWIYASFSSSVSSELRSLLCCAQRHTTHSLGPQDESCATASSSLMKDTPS
In words: Binding Assay to Rat Kidney Medullary V2 Receptors. The note with it: for inhibition at 10 µM: rat kidney, read-out: V2, % at concentration in brackets; for IC50: rat kidney medullary V2. A digest of the protocol:
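Competition binding: [3H]AVP at 0.8 nM, test compounds from 50% DMSO, and membranes from rat kidney medulla, left 120 min on the bench. Filtration then liquid scintillation counting measured bound ligand; 1.0 μM unlabeled ligand set non-specific binding.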

In test [3] the target is T2, oxytocin receptors (rat uterus membranes) (Rattus norvegicus, UniProt P70536).
T2 construct: The resulting pellet containing the oxytocin receptors is resuspended; from tissue; host or cells: uterus membranes of DES-treated female Sprague-Dawley rats
T2 sequence (P70536 1-388): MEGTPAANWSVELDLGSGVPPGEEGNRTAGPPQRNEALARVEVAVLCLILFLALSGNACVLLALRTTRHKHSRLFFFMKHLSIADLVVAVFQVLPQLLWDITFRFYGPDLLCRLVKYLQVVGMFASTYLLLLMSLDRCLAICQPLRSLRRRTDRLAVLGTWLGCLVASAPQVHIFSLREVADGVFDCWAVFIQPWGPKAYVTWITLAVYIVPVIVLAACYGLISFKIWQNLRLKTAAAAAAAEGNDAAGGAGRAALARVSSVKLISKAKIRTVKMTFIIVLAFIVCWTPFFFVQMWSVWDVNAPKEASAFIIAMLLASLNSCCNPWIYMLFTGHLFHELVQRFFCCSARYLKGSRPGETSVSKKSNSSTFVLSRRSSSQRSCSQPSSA
In words: Oxytocin Receptor Binding. Details: species or system female Sprague-Dawley rats. As for the experimental part: Female Sprague-Dawley rats weighing approximately 200-250 g are injected intramuscularly (i.m.) with 0.3 mg/kg of body weight of diethylstilbestrol (DES). The rats are sacrificed 18 hours later under pentobarbital anesthesia. The uteri are dissected out, cleaned of fat and connective tissues and rinsed in 50 ml of normal saline. The tissue pooled from six rats is homogenized in 50 ml of […] Tris.HCl, containing 0.5 mM dithiothreitol and 1.0 mM EDTA, adjusted to pH 7.4, using a polytron at setting 6 with three passes of 10 sec each. The homogenate is passed through two (2) layers of cheesecloth and the filtrate centrifuged at 1000×g for 10 min. The clear supernatant is removed and recentrifuged at 165,000×g for 30 min. The resulting pellet containing the oxytocin receptors is resuspended in 50.0 mM Tris.HCl containing 5.0 mM MgCl2 at pH 7.4, to give a protein concentration of 2.5 mg/ml of tissue suspension. This preparation is used in subsequent binding assays with [^3 H]Oxytocin.
Binding of 3,5-[^3 H]Oxytocin ([^3 H]OT) to its receptors is done in microtiter plates using [^3 H]OT, at various concentrations, in an assay buffer of 50.0 mM Tris.HCl, pH 7.4 and containing 5.0 mM MgCl2, and a mixture of protease inhibitors: BSA, 0.1 mg; aprotinin, 1.0 mg; 1,10-phenanthroline, 2.0 mg; […], 10.0 mg; and PMSF, 0.3 mg per 100 ml of buffer solution. Non-specific binding is determined in the presence of 1.0 uM unlabeled OT. The binding reaction is terminated after 60 min., at 22° C., by rapid filtration through glass fiber filters using a Brandel® cell harvester (Biomedical Research and Development Laboratories, Inc., Gaithersburg, Md.). Competition experiments are conducted at equilibrium using 1.0 nM [^3 H]OT and varying the concentration of the displacing agents. The concentrations of agent displacing 50% of [^3 H]OT at its sites (IC50) are calculated by a computer assisted LUNDON-2 program (LUNDON SOFTWARE INC., Ohio, USA).

The subject of another test is vasopressin V2. Nature of the test: Vasopressin V2 Antagonist Activity in Conscious Hydrated Rats (diuretic effect). It counts as in vivo, normal Sprague-Dawley rats. The settings on record: AVP 0.4 μg/kg i.p. A digest of the protocol:
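Conscious rats were dosed orally at 0.1–100 mg/kg, and AVP 0.4 μg/kg i.p. in peanut oil followed 1 h later. Urine volume, osmolality and Na/K/Cl were compared against AVP-treated controls, with non-AVP rats as water-loading controls.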

Another test relates to vasopressin V1. Nature of the test: Vasopressin V1 Antagonist Activity in Conscious Rats (vasopressin vasopressor response). Details: Average Change: unit not given here. It counts as in vivo, rat (spontaneously hypertensive rats). A digest of the protocol:
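Conscious rats had the ventral caudal tail artery cannulated into the lower abdominal aorta under local procaine anesthesia, plus a caudal vein cannula for intravenous dosing. Pulsatile blood pressure was recorded via a Statham P23Db transducer. Vasopressor responses to vasopressin injections were measured before and after compound dosing, with percent antagonism calculated relative to the pre-drug response taken as 100%.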

The mark [4] stands for this setting: 10 mg/kg i.v., VAS 0.01 i.u./kg, 30 min.
Where [5] appears, read: 10 mg/kg i.v., VAS 0.02 i.u./kg, 30 min.
The mark [6] stands for this setting: 20 mg/kg i.v., VAS 0.01 i.u./kg, 60 min.
Where [7] appears, read: 20 mg/kg i.v., VAS 0.01 i.u./kg, 90 min.
Setting [8] is: 20 mg/kg i.v., VAS 0.01 i.u./kg, 120 min.
[9] abbreviates: 20 mg/kg i.v., VAS 0.01 i.u./kg, 180 min.
Setting [10] is: 20 mg/kg i.v., VAS 0.01 i.u./kg, 240 min.
Setting [11] is: 20 mg/kg i.v., VAS 0.01 i.u./kg, 300 min.
The mark [12] stands for this setting: 20 mg/kg i.v., VAS 0.02 i.u./kg, 60 min.
The mark [13] stands for this setting: 20 mg/kg i.v., VAS 0.02 i.u./kg, 90 min.
The mark [14] stands for this setting: 20 mg/kg i.v., VAS 0.02 i.u./kg, 120 min.
[15] abbreviates: 20 mg/kg i.v., VAS 0.02 i.u./kg, 180 min.
Setting [16] is: 20 mg/kg i.v., VAS 0.02 i.u./kg, 240 min.
The mark [17] stands for this setting: 20 mg/kg i.v., VAS 0.02 i.u./kg, 300 min.

vasopressin V1 receptor (rat liver plasma membranes), sequence (P30560 whole entry): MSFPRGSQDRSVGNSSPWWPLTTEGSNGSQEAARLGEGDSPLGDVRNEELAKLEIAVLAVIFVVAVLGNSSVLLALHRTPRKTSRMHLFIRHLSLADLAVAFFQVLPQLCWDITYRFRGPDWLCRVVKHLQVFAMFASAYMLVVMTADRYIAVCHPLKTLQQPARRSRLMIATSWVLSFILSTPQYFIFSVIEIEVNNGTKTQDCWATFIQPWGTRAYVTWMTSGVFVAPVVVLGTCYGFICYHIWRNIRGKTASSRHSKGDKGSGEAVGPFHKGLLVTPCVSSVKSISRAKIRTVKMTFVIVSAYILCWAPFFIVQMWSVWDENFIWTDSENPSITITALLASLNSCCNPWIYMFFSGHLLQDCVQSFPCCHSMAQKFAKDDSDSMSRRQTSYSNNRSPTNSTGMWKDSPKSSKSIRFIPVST

Regarding `Cc1ccccc1C(=O)Nc1ccc(C(=O)N2CCc3cnoc3-c3ccccc32)cc1` [Example 345, N-[4-[(4,5-Dihydro-6H-isoxazolo[4,5-d][1]benzazepin-6-yl)carbonyl]phenyl]-2-methylbenzamide], the inhibition at 10 µM in test [1] was 99%; in test [2], 81%; in test [3], 2%.
On to `CN(C)CC(=O)Nc1ccc(C(=O)N2Cc3ccccc3Cc3ccccc32)cc1` [Example 454], for which the inhibition at 10 µM turned out to be 64% in test [1], 33% in test [2] and 78% in test [3]. Besides, in test [3] (second part of Table V), the IC50 (commonly the concentration that gives 50% inhibition) was 2500 nM.
Regarding `O=C(Nc1ccc(C(=O)N2Cc3ccccc3Cc3ccccc32)c(Cl)c1)c1ccc(Cl)cc1Cl` [Example 256, N-[4-[(6,11-Dihydro-5H-dibenz[b,e]azepin-5-yl)-carbonyl]-3-chlorophenyl]-2,4-dichlorobenzamide], the IC50 in test [1] was found to be 100 nM; in test [2] it was 54 nM; in test [3] (first part of Table V) it was 6500 nM. Moreover, the inhibition at 10 µM in test [3] worked out at 47%.
As for `Cc1ccccc1COC(=O)c1ccc(C(=O)N2Cc3ccccc3Cc3ccccc32)cc1` [Example 266, (2-Methylphenyl)methyl 4-[(6,11-dihydro-5H-dibenz[b,e]azepin-5-yl)carbonyl)benzoate], in the test on vasopressin V2 (10 mg/kg orally), the Osmolality is 1186 mOsm/kg and the “Urine Volume” value is recorded as 4.3 ml/4 hrs. In addition, in the test with vasopressin V1 (30 mg/kg i.v.), the “MAX % Inhibition” value is on record as 21% and the “Time of max % inhibition” value was found to be 120 min. In addition, the inhibition at 10 µM in test [3] is 15%.
`Cc1c(F)cccc1C(=O)Nc1ccc(C(=O)N2CCc3c[nH]nc3-c3ccccc32)c(Cl)c1` [Example 582]: the results for the IC50 in test [1], in test [2] and in test [3] (second part of Table V) were 1300 nM, 5.3 nM and 275 nM, respectively.
Consider `O=C(c1ccc(NS(=O)(=O)c2ccccc2Cl)cc1)N1Cc2ccccc2Cc2ccccc21` [Example 450, 5-[4-[[(2-Chlorophenyl)sulfonyl]amino]benzoyl]-6,11-dihydro-5H-dibenz [b,e]azepine], for which the inhibition at 10 µM in test [1] was found to be 87%; in test [2], 29%; in test [3], 33%.
Turning to `O=C(Nc1ccc(C(=O)N2Cc3ccccc3Cc3ccccc32)cc1)c1ccc(Cl)cc1Cl` [Example 10, N-[4-[(6,11-Dihydro-5H-dibenz[b,e]azepin-5-yl)carbonyl]phenyl]2,4-dichlorobenzamide], the IC50 worked out at 170 nM in test [1] and 64 nM in test [2]. This compound also came in with an Osmolality in the test with vasopressin V2 (10 mg/kg orally) of 1023 mOsm/kg. Further, the “Urine Volume” value with vasopressin V2 (10 mg/kg orally) stood at 7.1 ml/4 hrs. In addition, the “Average Change” value with vasopressin V1 (setting [4]) was determined as 37.5; in the test on vasopressin V1 (setting [5]), 64.5; with vasopressin V1 (setting [6]) it was 14.5; with vasopressin V1 (setting [7]), 16; in the test on vasopressin V1 (setting [8]) it was 13.5; with vasopressin V1 (setting [9]), 25.5. Also, the “Average Change” value in the test with vasopressin V1 (setting [10]) is recorded as 22.5; with vasopressin V1 (setting [11]), 24.5; in the test on vasopressin V1 (setting [12]) it was 22.5; in the test with vasopressin V1 (setting [13]), 23; in the test with vasopressin V1 (setting [14]) it was 22; with vasopressin V1 (setting [15]) it was 29.5. For the same compound, the “Average Change” value turned out to be 34.5 in the test on vasopressin V1 (setting [16]) and 34 in the test with vasopressin V1 (setting [17]). The Inhibition (as a rule, the relative decrease from the control value, in per cent) in the test on vasopressin V1 (setting [4]) is -25%; with vasopressin V1 (setting [5]) it was -26%; with vasopressin V1 (setting [6]), 52%; in the test with vasopressin V1 (setting [7]), 47%; in the test on vasopressin V1 (setting [8]), 55%; with vasopressin V1 (setting [9]) it was 15%. Also, the Inhibition in the test with vasopressin V1 (setting [10]) is 25%; in the test with vasopressin V1 (setting [11]) it was 18%; in the test with vasopressin V1 (setting [12]), 56%; with vasopressin V1 (setting [13]), 55%; in the test with vasopressin V1 (setting [14]), 57%; in the test on vasopressin V1 (setting [15]), 42%. Besides, the Inhibition in the test with vasopressin V1 (setting [16]) is 32%; in the test on vasopressin V1 (setting [17]), 33%.
Consider `CSc1ccccc1C(=O)Nc1ccc(C(=O)N2Cc3ccccc3Cc3ccccc32)cc1` [Example 61, N-[4-[(6.11-Dihydro-5H-dibenz[b.e]azepin-5-yl)-carbonyl]phenyl]-2-(methylthio)benzamide], for which the values for the IC50 in test [1] and in test [2] were 52 nM and 68 nM, respectively. The same compound came in with an Osmolality with vasopressin V2 (10 mg/kg orally) of 975 mOsm/kg. For the same compound, the “Urine Volume” value in the test on vasopressin V2 (10 mg/kg orally) was found to be 9.3 ml/4 hrs. In addition, the “Average Change” value with vasopressin V1 (setting [4]) is recorded as 21; with vasopressin V1 (setting [5]), 32.5; with vasopressin V1 (setting [6]), 13; in the test with vasopressin V1 (setting [7]), 8; with vasopressin V1 (setting [8]), 12; in the test on vasopressin V1 (setting [9]), 15.5. Also, the “Average Change” value in the test on vasopressin V1 (setting [10]) is recorded as 12; with vasopressin V1 (setting [11]), 15.5; with vasopressin V1 (setting [12]), 14.5; with vasopressin V1 (setting [13]), 16.5; in the test with vasopressin V1 (setting [14]) it was 20; in the test on vasopressin V1 (setting [15]), 17.5. The “Average Change” value worked out at 23 in the test with vasopressin V1 (setting [16]) and 24 in the test with vasopressin V1 (setting [17]). The Inhibition in the test on vasopressin V1 (setting [4]) worked out at 26%; with vasopressin V1 (setting [5]) it was 37%; in the test with vasopressin V1 (setting [6]), 54%; in the test with vasopressin V1 (setting [7]) it was 72%; in the test with vasopressin V1 (setting [8]) it was 58%; in the test with vasopressin V1 (setting [9]), 46%. For the same compound, the Inhibition is 58% in the test with vasopressin V1 (setting [10]); 46% in the test on vasopressin V1 (setting [11]); 72% with vasopressin V1 (setting [12]); 68% in the test on vasopressin V1 (setting [13]); 61% in the test on vasopressin V1 (setting [14]); 66% in the test with vasopressin V1 (setting [15]). The Inhibition in the test with vasopressin V1 (setting [16]) was 55%; in the test on vasopressin V1 (setting [17]), 53%.
Take `O=C(Nc1ccc(C(=O)N2Cc3ccccc3Cc3cc(Cl)ccc32)cc1)c1ccc(Cl)cc1Cl` [Example 137, N-[4-[(2-Chloro-6,11-dihydro-5H-dibenz[b,e]azepin-5-yl)carbonyl]phenyl]2,4-dichlorobenzamide]: the IC50 in test [1] was determined as 76 nM. In addition, in test [2], the IC50 amounted to 64 nM. In the test with vasopressin V2 (30 mg/kg orally), the Osmolality was determined as 358 mOsm/kg and the “Urine Volume” value came out at 15.8 ml/4 hrs. Further, in the test on vasopressin V1 (10 mg/kg i.v.), the “MAX % Inhibition” value is recorded as 52% and the “Time of max % inhibition” value is 30 min.

The values above are taken from patent publication US5834461A, “Tricyclic benzazepine vasopressin antagonists” (American Cyanamid Company, priority 1997, dated 1998).
